According to patent publication US7345065B2, “Methods and compositions for alleviating pain” (Allergan, Inc., priority 2002, dated 2008):

Key:
Assay type in all cases: cell-based
human α-2C (c4 gene) = target: T1, human α-2C (c4 gene) (Homo sapiens, UniProt P18825); test: RSAT assay, α-2C receptor; details: for EC50: NA = not active (EC50 ≧ 10,000); for Emax: in brackets under the RSAT activity, printed without % sign, read-out: % efficacy 2C
T1 construct: expressed in transfected cells; host or cells: NIH-3T3
T1 sequence (P18825 1-462): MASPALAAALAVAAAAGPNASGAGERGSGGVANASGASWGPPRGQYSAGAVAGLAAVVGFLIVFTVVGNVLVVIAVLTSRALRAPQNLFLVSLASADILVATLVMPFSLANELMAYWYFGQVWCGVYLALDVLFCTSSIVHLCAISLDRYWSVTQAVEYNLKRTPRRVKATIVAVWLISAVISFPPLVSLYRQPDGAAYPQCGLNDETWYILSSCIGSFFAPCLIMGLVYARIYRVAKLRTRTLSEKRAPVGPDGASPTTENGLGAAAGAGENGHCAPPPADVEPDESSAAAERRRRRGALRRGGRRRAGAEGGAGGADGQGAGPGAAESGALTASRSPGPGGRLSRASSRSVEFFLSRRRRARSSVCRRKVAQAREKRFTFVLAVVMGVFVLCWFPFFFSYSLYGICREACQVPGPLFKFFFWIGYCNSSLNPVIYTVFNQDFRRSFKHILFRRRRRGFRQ
From the text: (§1) Agonist and antagonist activity, including selectivity and specificity, can be characterized using any of a variety of routine assays, including, without limitation, Receptor Selection and Amplification Technology (RSAT) assays (Messier et al., Pharmacol. Toxicol. 76:308-11 (1995); Conklin et al., Nature 363:274-6 (1993)); cyclic AMP assays (Shimizu et al., J. Neurochem. 16:1609-1619 (1969)); and cytosensor microphysiometry assays (Neve et al., J. Biol. Chem. 267:25748-25753 (1992)). Such assays generally are performed using cells that naturally express only a single α-adrenergic receptor subtype, or using transfected cells expressing a single recombinant α-adrenergic receptor subtype. The adrenergic receptor can be a human receptor or homolog thereof having a similar pharmacology. As disclosed herein, RSAT assays were performed using cells transiently transfected with human α-2A (c10 gene); rat α-2B (RNG gene); human α-2C (c4 gene); bovine α-1A; hamster α-1B; and rat α-1D.
(§2) The RSAT assay measures receptor-mediated loss of contact inhibition resulting in selective proliferation of receptor-containing cells in a mixed population of confluent cells. The increase in cell number is assessed with an appropriate detectable marker gene such as β-galactosidase, if desired, in a high throughput or ultra high throughput assay format. Receptors that activate the G protein, Gq, elicit the proliferative response. α-adrenergic receptors, which normally couple to Gi, activate the RSAT response when coexpressed with a hybrid Gq protein containing a Gi receptor recognition domain, designated Gq/i5.
As an example, an RSAT assay can be performed essentially as follows. NIH-3T3 cells are plated at a density of 2×10^6 cells in 15 cm dishes and maintained in Dulbecco's modified Eagle's medium supplemented with 10% calf serum. One day later, cells are cotransfected by calcium phosphate precipitation with mammalian expression plasmids encoding p-SV-β-galactosidase (5-10 μg), receptor (1-2 μg) and G protein (1-2 μg). Carrier DNA, for example 40 μg salmon sperm DNA, also can be included to increase transfection efficiency. Fresh media is added on the following day; one to two days later, cells are harvested and frozen in 50 assay aliquots. Transfected cells are thawed, and 100 μl of cells added to 100 μl aliquots of compound to be tested, with various concentrations assayed in triplicate, for example, in 96-well plates. Incubation continues for 72 to 96 hours at 37°. After washing with phosphate-buffered saline, β-galactosidase activity is determined by adding 200 μl of chromogenic substrate (3.5 mM O-nitrophenyl-β-D-galactopyranoside/0.5% NP-40 in phosphate buffered saline), incubating overnight at 30°, and measuring optical density at 420 nm. The absorbancy is a measure of enzyme activity, which depends on cell number and reflects receptor-mediated cell proliferation. The EC50 and maximal effect (efficacy) of each drug at each receptor is determined.

bovine α-1A = target: T2, bovine α-1A (Bos taurus, UniProt P18130); test: RSAT assay, α-1A receptor; details: NA = not active (EC50 ≧ 10,000)
T2 construct: expressed in transfected cells; host or cells: NIH-3T3
T2 sequence (P18130 1-466): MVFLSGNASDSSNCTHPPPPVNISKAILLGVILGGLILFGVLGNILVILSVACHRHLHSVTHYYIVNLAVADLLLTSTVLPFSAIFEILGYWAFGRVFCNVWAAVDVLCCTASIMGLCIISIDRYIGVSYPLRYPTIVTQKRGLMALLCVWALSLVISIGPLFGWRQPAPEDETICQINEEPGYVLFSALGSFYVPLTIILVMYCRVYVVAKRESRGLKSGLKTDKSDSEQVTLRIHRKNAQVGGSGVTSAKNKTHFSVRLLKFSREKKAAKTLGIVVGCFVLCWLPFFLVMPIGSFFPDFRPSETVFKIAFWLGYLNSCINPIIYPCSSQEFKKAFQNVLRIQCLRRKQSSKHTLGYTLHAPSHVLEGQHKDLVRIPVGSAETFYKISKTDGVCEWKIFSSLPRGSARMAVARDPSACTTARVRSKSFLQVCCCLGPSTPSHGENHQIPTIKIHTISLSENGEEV
From the text: as §1, with “The adrenergic receptor can be a human receptor or homolog thereof having a similar pharmacology. As disclosed herein, RSAT assays were performed using cells transiently transfected with human α-2A (c10 gene); rat α-2B (RNG gene); human α-2C (c4 gene); bovine α-1A; hamster α-1B; and rat α-1D.” left out
The RSAT assay measures receptor-mediated loss of contact inhibition resulting in selective proliferation of receptor-containing cells in a mixed population of confluent cells. The increase in cell number is assessed with an appropriate detectable marker gene such as β-galactosidase, if desired, in a high throughput or ultra high throughput assay format. […]
As an example, an RSAT assay can be performed essentially as follows. […] After washing with phosphate-buffered saline, β-galactosidase activity is determined by adding 200 μl of chromogenic substrate (3.5 mM O-nitrophenyl-β-D-galactopyranoside/0.5% NP-40 in phosphate buffered saline), incubating overnight at 30°, and measuring optical density at 420 nm. […]

rat α-1D = target: T3, rat α-1D (Rattus norvegicus, UniProt P23944); test: RSAT assay, α-1D receptor; details: NA = not active (EC50 ≧ 10,000)
T3 construct: expressed in transfected cells; host or cells: NIH-3T3
T3 sequence (P23944 1-561): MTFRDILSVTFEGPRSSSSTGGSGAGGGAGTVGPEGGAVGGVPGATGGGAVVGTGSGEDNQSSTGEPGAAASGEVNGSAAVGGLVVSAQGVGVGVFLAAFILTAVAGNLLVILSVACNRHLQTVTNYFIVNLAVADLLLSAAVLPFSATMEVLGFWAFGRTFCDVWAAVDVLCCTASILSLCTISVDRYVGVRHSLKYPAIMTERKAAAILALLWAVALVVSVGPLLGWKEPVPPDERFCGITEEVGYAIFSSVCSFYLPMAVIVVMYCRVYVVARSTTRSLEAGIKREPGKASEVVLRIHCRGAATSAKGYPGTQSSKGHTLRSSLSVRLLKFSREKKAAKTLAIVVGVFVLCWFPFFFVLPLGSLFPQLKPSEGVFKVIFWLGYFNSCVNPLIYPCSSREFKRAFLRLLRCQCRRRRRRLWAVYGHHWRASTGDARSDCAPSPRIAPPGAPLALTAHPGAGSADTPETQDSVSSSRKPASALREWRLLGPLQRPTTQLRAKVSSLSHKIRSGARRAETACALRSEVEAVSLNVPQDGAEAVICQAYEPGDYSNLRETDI
From the text: as §1, §2
As an example, an RSAT assay can be performed essentially as follows. […] After washing with phosphate-buffered saline, β-galactosidase activity is determined by adding 200 μl of chromogenic substrate (3.5 mM O-nitrophenyl-β-D-galactopyranoside/0.5% NP-40 in phosphate buffered saline), incubating overnight at 30°, and measuring optical density at 420 nm. […] The EC50 and maximal effect (efficacy) of each drug at each receptor is determined.

Row | EC50 (human α-2C (c4 gene)) [nM] | EC50 (bovine α-1A) [nM] | EC50 (rat α-1D) [nM] | Emax (human α-2C (c4 gene)) [%] | Structure (SMILES)
1 | > 2000 | > 2000 | > 2000 |  | O=C1c2ccccc2CCC1Cc1c[nH]c(=S)[nH]1 (racemic) [Compound 3]
2 | 202 |  | > 2000 | 0.5 | O=c1[nH]cc(CC2CCc3cc(F)ccc32)[nH]1 (stereo not shown) [Compound 4]
3 | 247 | 1710 | > 2000 | 0.3 | S=c1[nH]cc(CC2CC=CC2)[nH]1 [Compound 11]
